Source: patent US6140341A, “Aminoalkyl and acylaminoalkyl ethers, process for their preparation, and their use as bradykinin receptor antagonists” (Hoechst Aktiengesellschaft, priority 1996, dated 2000)

Assays:
[1] = target: T1, bradykinin B2 receptor (Cavia porcellus, UniProt O70526); experiment: Affinity for the bradykinin B2 receptor on membrane preparations from guinea pig ileum (3H-bradykinin competition); format: binding; settings: 3H-bradykinin (0.25 to 0.3 nMol/l), guinea pig ileum membranes, pH 6.8, room temperature, 60 minutes
T1 construct: preparations of membranes from the guinea pig ileum; from tissue; host or cells: guinea pig ileum membranes
T1 sequence (O70526 1-372): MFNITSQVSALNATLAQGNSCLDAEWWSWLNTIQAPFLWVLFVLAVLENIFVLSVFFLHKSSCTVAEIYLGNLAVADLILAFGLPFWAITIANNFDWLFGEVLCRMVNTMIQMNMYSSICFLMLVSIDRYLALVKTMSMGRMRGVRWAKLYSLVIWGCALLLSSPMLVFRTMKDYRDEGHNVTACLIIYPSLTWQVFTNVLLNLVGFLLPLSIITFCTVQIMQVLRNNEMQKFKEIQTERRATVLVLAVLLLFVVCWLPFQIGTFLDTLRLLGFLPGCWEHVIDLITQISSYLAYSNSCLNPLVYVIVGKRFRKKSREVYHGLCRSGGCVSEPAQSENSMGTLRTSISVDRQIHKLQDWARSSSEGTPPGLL
Procedure: Determination of the affinity of the compounds of the formula (I) for the bradykinin B2 receptor took place on preparations of membranes from the guinea pig ileum (R. B. Innis et al., Proc. Natl. Acad. Sci. USA; […] (1981) 2630) by the following method:
1. Ligand: ^3 H-BRADYKININ (from NEN Du Pont)
25 mM TES (SIGMA, Order No.: T-4152)
1 mM 1,10-phenanthroline (SIGMA; Order No.: P-9375)
25 mM TES (SIGMA; Order No.: T-4152)
0.1% albumin, bovine (SIGMA; Order No.: A-7906)
140 μg/ml bacitracin (SIGMA; Order No.: B-0125)
1 mM dithiothreitol (SIGMA; Order No.: D-0632)
1 μM captopril-1-[(2S)-3-mercapto-2-methylpropionyl]-L-proline
Both buffers are adjusted to pH 6.8 with 5 molar NaOH.
Guinea pig ilea are carefully squeezed out to remove most of the intestinal contents and are cleaned in 0.9% strength NaCl solution.
The pieces of ilea about 2 cm long are transferred into ice-cold TES buffer (about 1 g/10 ml) and homogenized with an Ultraturrax in an ice bath for about 30 sec. The homogenate is then filtered through 3 layers of gauze and the filtrate is centrifuged at 50,000 g for 10 minutes.
The supernatant is discarded, and the pellet is rehomogenized in the same volume of TES buffer and again centrifuged at 50,000 g for 10 minutes. The pellet is rehomogenized in incubation buffer (about 1 g/5 ml) and frozen in 2 ml portions in cryotubes at -70° C.
The protein concentration in the finished membrane suspension is determined by the LOWRY method and should be about 15 μg/100 μl.
All the incubations are carried out in a volume of 200 μl in microtiter plates (96×300 μl) at room temperature for 60 minutes. All mixtures in incubation bufler. 50 μl of the radioligands, 50 μl of the product to be tested and 100 μl of the membrane suspension are successively pipetted into these in the wells of the microtiter plate. […]
a) Saturation experiments (hot saturation): […]
Nonspecific binding: The nonspecific binding must be determined for each concentration of the radioactive ligand. […]

[2] = test system: bradykinin-induced contraction of the guinea pig ileum; experiment: Bradykinin-antagonistic effect on the bradykinin-induced contraction of the isolated guinea pig ileum; settings: Cavia porcellus, 10 min, Tyrode solution 37° C., antagonist action time 10 min
Description: Furthermore, to determine the bradykinin-antagonistic effect of the compounds of the formula (I) it is possible to measure their effect on the bradykinin-induced contraction of the guinea pig ileum by the following protocol:
Guinea pigs weighing about 300 g (Morioth strain,--) are sacrificed by a blow to the back of the neck and are exsanguinated. A length of about 20 cm of ileum is dissected out and rinsed with Tyrode solution (Record syringe), thus removing intestinal contents. It is then divided into segments 1.5 cm long. These are fixed in organ baths with a capacity of 10 ml which are filled with Tyrode solution, and are connected to strain gauges (isometric contraction measurement). The initial load is 1 g. The Tyrode solution is heated in a water bath to 37° C., and compressed air is bubbled through.
After an interval of 30 min, the experiment is started. After recording the biological zero line, bradykinin is added to each organ bath in a final concentration of […], and the concentration is recorded. Then, after rinsing with Tyrode solution for 3 min and a resting period of 20 min, bradykinin is again added. The maximum contraction is reached (control). Rinsing and resting period repeated. The bradykinin antagonist is then added (action time 10 min.). […] The experiment is recorded on a pen recorder. […]

Row | Compound | Ki [1] [µM] | IC50 [2] [µM]
1 | Cc1ccc2cccc(OCc3c(Cl)ccc(OCCNC(=O)/C=C/c4ccccc4)c3Cl)c2n1 [Example 5, 8-[2,6-dichloro-3-(trans-2-N-cinnamoylaminoethoxy)benzyloxy]-2-methylquinoline] | 0.061 | 
2 | COc1ccc(/C=C/C(=O)NCCOc2ccc(Cl)c(COc3cccc4ccc(C)nc34)c2Cl)cc1 [Example 6, 8-[2,6-dichloro-3-(2-N-(trans-4-methoxycinnamoyl)aminoethoxy)benzyloxy]-2-methylquinoline] | 0.032 | 
3 | Cc1ccc2cccc(OCc3c(Cl)ccc(OCCN)c3Cl)c2n1 [Example 1, 8-[3-(2-aminoethoxy)-2,6-dichlorobenzyloxy]-2-methylquinoline] |  | 1.8
4 | Cc1ccc2cccc(OCc3c(Cl)ccc(OCCNC(=O)/C=C/c4ccc(N)cc4)c3Cl)c2n1 [Example 2, 8-[3-(2-N-(trans-4-aminocinnamoyl)aminoethoxy)-2,6-dichlorobenzyloxy]-2-methylquinoline] | 0.02 | 
